We go through 94 compounds from PubChem BioAssay AID1417 (Emory University Molecular Libraries Screening Center, 2008).

A word on the IC50: it is the concentration at which inhibition is half-maximal. Low readings indicate greater potency, high ones weaker potency.

Sequence of Induced myeloid leukemia cell differentiation protein Mcl-1 (Homo sapiens) (Q07820 whole entry, looked up): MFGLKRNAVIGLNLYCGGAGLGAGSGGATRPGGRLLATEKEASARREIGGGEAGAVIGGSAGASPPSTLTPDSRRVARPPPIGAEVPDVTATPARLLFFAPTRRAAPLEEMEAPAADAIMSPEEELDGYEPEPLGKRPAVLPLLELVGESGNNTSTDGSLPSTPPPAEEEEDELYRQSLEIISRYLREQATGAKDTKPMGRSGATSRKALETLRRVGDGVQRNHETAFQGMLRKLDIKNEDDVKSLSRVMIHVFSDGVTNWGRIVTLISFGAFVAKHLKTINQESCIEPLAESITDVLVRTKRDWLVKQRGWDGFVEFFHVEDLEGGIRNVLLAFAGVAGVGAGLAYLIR

This test has as its target Induced myeloid leukemia cell differentiation protein Mcl-1 (Homo sapiens) (UniProt Q07820). Description: Mcl-1 Noxa peptide disruption concentration-response – biochemical, TR-FRET, dose response (AID 1417). The following applies: Mcl-1/Noxa peptide interaction, cell-free TR-FRET (terbium/rhodamine), 2 h; measured here: absolute IC50.
`N#C/C(=C(/O)c1ccc(-c2cccc([N+](=O)[O-])c2)o1)c1nc2ccccc2s1` registered an IC50 of 5.71 µM.
Turning to `CSc1nc(N(C)CCO)c2sc3nc(-c4ccco4)c4c(c3c2n1)CCC4`, the IC50 was under 0.4 µM.
Turning to `O=C(OCC(=O)N1CCN(C(=O)c2ccco2)CC1)c1cc(-c2ccco2)nc2ccccc12`, the IC50 was 1.93 µM.
The compound `COc1ccccc1C(=O)N=Nc1c(O)[nH]c2ccc([N+](=O)[O-])cc12` gave an IC50 of 4.72 µM.
`O=S(=O)(c1ccc2nc(-c3ccco3)c(-c3ccco3)nc2c1)N1CCOCC1` displayed an IC50 of 8.41 µM.
Turning to `COc1ccc(N2CCC(CNC(=O)Nc3ccc(C)c(C)c3)C2)cc1` (centres undefined), the IC50 is over 54 µM.
In turn, `COCCN=c1scc(-c2cccs2)n1/N=C/c1ccc(O)c(O)c1O` came in with an IC50 of 4.33 µM.
As to `C=CCSC1=N/C(=C\C=C\c2ccco2)C(=O)S1`, the half-maximal inhibitory concentration (IC50) amounted to 5.07 µM.
Compound `O=C(O)CC(CCc1ccccc1)OC1OC(CO)C(O)C(O)C1O` (centres undefined) had an IC50 of under 0.4 µM.
With `Cc1ccc(/C=C/C(=O)Nc2ccc([N+](=O)[O-])c(NC(=O)/C=C/c3ccc(C)o3)c2)o1`, the half-maximal inhibitory concentration (IC50) was under 0.4 µM.
For the compound `COc1ccc2c3c(cccc13)N(C)N=C2C`, the IC50 was found to be 0.931 µM.
For `CCOC(=O)C1CCN(C(=O)Nc2ccc3nc(-c4ccco4)c(-c4ccco4)nc3c2)CC1`, the IC50 came out at 0.932 µM.
In the case of `O=C(CSc1ccsc1[N+](=O)[O-])N1CCN(c2ccc(Cl)cc2)CC1` it was 5.22 µM; in that of `Cc1ccc(-c2cc(C(=O)OCC(=O)N(C)C3CCS(=O)(=O)C3)c3ccccc3n2)o1` (centres undefined), 2.98 µM; in that of `CCC(=O)NC1=C(Cl)C(=O)C(NC(=O)CC)=C(Cl)C1=O`, under 0.4 µM.
`O=c1oc2c(O)c(O)cc3c(=O)oc4c(O)c(O)cc1c4c23` yielded an IC50 of under 0.4 µM.
With `Nc1ccc(N2CCCCC2)cc1N1CCCCC1`, the IC50 was over 54 µM.
`COC(=O)Nc1ccc(S(=O)(=O)NCc2ccccn2)cc1` gave an IC50 of over 54 µM.
Turning to `COc1ccc2nc(-c3ccco3)c(-c3ccco3)nc2c1`, the IC50 is 2.25 µM.
`Cc1ccc(/C=c2\sc3nc(-c4ccco4)nn3c2=O)o1` showed an IC50 of 6.14 µM.
`CC(C)(C)c1ccc(CN2N=Nc3ccccc3S2(=O)=O)cc1` had a half-inhibitory concentration (IC50) of 18.9 µM.
In turn, `Cc1sc(-n2c(C)cc(/C=C3\SC(=S)NC3=O)c2C)c(C#N)c1C` yielded an IC50 of 4.07 µM.
For the compound `CCN(c1ccc(NC(=O)COC(=O)/C=C/c2cccs2)cc1)C(C)C`, the half-maximal inhibitory concentration (IC50) was determined as 3.81 µM.
Turning to `CCc1nn2c(=O)cc(COc3ccc(/C=C4\C(=N)N5N=C(C)SC5=NC4=O)cc3)nc2s1`, the IC50 is 3.78 µM.
`Nc1cccnc1Sc1cc(Cl)c(Cl)cc1Cl` registered an IC50 of over 54 µM.
In turn, `Cc1cc(C(=O)COC(=O)c2cc(O)c3ccccc3c2O)c(C)n1CC1CCCO1` (centres undefined) had an IC50 of under 0.4 µM.
Then `CC(=O)c1sc2nc(CSc3nnnn3-c3ccccc3)[nH]c(=O)c2c1C`, with 0.93 µM; and `Cc1ccc(-n2c(=O)c3cc4c(=O)n(-c5ccc(C)c(C)c5)c(=O)c4c(C(=O)c4ccc(C(=O)O)cc4)c3c2=O)cc1C`, with 4.28 µM; and `COc1ccc(C(=O)CSc2nnc(-c3ccco3)c(-c3ccco3)n2)cc1`, with 7.95 µM.
With `O=[N+]([O-])c1cccc(S(=O)(=O)Nc2nc3ccccc3nc2Nc2cccc(S(=O)(=O)N3CCCCC3)c2)c1`, the 50% inhibitory concentration (IC50) came out at 3.75 µM.
Then `CCCSC1=N/C(=C\c2ccc([N+](=O)[O-])o2)C(=O)S1`, with 3.01 µM.
Compound `COc1cc(NCCC(=O)c2cccs2)c(OC)cc1Cl` returned an IC50 of over 54 µM.
The compound `COCCN(CCOC)S(=O)(=O)c1ccc(C(=O)Nc2c(C)n(C)n(-c3ccccc3)c2=O)cc1` displayed an IC50 of over 54 µM.
Consider `O=C(CCN1CCN(c2ccccc2)CC1)N/N=C/c1ccc(O)c(O)c1O`, for which the IC50 is under 0.4 µM.
As for `CC(=O)c1ccc(-n2c(CCC(=O)O)ccc2-c2cccs2)cc1`, the half-maximal inhibitory concentration (IC50) is over 54 µM.
For the compound `CCN(CC)c1nc2c3c(nc4c(c3c1C#N)CC(=O)N4c1ccc(Cl)cc1)NC(C)=N2`, the IC50 is 3.19 µM.
Regarding `Oc1ccc(/C=N/NC(=S)Nc2cccnc2)c(O)c1O`, the IC50 is under 0.4 µM.
As for `COc1cc(/C=N/Nc2nc(C)nc3c2cnn3-c2ccccc2)ccc1O`, the concentration for half-maximal inhibition (IC50) amounted to 13.3 µM.
In the case of `Cc1cccc(C(=O)NC(=S)NNC(=O)c2ccc(Cl)cc2)c1` it was over 54 µM.
Regarding `CC1=Nc2cccc3cccc(c23)N1`, the IC50 is 2.63 µM.
`Cc1[nH]n(-c2ncc(-c3ccc(Cl)cc3)s2)c(=O)c1C(c1ccc(Cl)cc1)C(C#N)C#N` (centres undefined): the IC50 is 1.67 µM.
Regarding `COc1ccc(-c2csc(NC(=O)CSc3nc(C)nc4sc(C(=O)O)c(C)c34)n2)cc1`, the IC50 came to 8.23 µM.
As to `COc1ccccc1C1C2=C(N=c3s/c(=C/c4cccc(OCC(=O)O)c4)c(=O)n31)c1ccccc1CC2` (centres undefined), the IC50 was 2.15 µM.
`CC(/C=C/c1ccco1)=N/NC(=O)Cc1cccs1` yielded an IC50 of 4.32 µM.
In the case of `O=C(NCCO)c1ccc2nc(-c3ccco3)c(-c3ccco3)nc2c1`, the IC50 stood at 0.527 µM.
Take `COc1cc(NS(=O)(=O)c2ccc(NC(=S)NC(=O)c3sc4cc(F)ccc4c3Cl)cc2)nc(OC)n1`: the IC50 was over 54 µM.
With `O=C(CSc1ccsc1[N+](=O)[O-])Nc1cccc(F)c1`, the half-maximal inhibitory concentration (IC50) was determined as 2.61 µM.
On to `CNCc1ccccc1Sc1cc(O)ccc1O`, for which the IC50 was 4.17 µM.
Compound `CC(/C=C1\SC(=S)N(c2ccc(C(=O)O)cc2)C1=O)=C\c1ccccc1` showed a half-maximal inhibitory concentration (IC50) of 2.81 µM.
In the case of `Cc1cc(N(CCO)CCO)ccc1C(c1ccc(N(CCO)CCO)cc1C)c1ccccc1Cl`, the IC50 stood at 1.13 µM.
On to `CCc1ccc2nc3sc(C(=O)Nc4nnc(CC)s4)c(N)c3cc2c1`, for which the IC50 is over 54 µM.
For `O=C(Nc1ccc2nc3ccccc3nc2c1)c1ccccc1`, the IC50 came to 29.6 µM.
Then `CCNc1ccc(Br)cc(C(=O)/C=C/c2ccc3c(c2)OCO3)c1=O`, with 0.499 µM; and `CCCCN1C(=O)/C(=C/C=C/c2ccco2)C(=O)NC1=S`, with 0.55 µM.
On to `Cc1cc(/C=N/n2c(COc3ccccc3C)nc3ccccc3c2=O)c(O)c([N+](=O)[O-])c1`, for which the half-inhibitory concentration (IC50) worked out at 4.86 µM.
Compound `O=C(NC1CC1)c1cc(-c2ccco2)nc2ccccc12` showed an IC50 of under 0.4 µM.
In turn, `Cc1sccc1/C=N/NC(=O)c1cccc2ccccc12` gave an IC50 of over 54 µM.
As for `CCOC(=O)C1=C(C)NC2=C(C(=O)CC(C)(C)C2)C1c1ccc2c(c1)CCCN2C` (centres undefined), the IC50 is over 54 µM.
In turn, `N#Cc1cc(-c2ccccc2)nn1-c1ccccc1` returned an IC50 of under 0.4 µM.
With `Cc1ccc(/C=C2/SC(=O)NC2=S)o1`, the IC50 stood at 4.11 µM.
For `O=C1C(=Cc2cccn2-c2ccccc2)C(=O)c2ccccc21`, the IC50 is 5.19 µM.
In turn, `COc1ccc(C2=NN(c3nc(-c4ccccc4)c(CC(=O)O)s3)C(c3ccco3)C2)cc1` (centres undefined) yielded an IC50 of 11.9 µM.
In the case of `O=C(O)c1ccc(N/N=C/c2ccc(-c3ccc(Cl)cc3Cl)o2)cc1`, the IC50 worked out at 4.36 µM.
`C=CCN1C(=O)/C(=C2/C(=O)N(CC(=O)O)c3ccccc32)S/C1=N/c1nccs1`: the IC50 is under 0.4 µM.
In the case of `Nc1c(O)ccc2c1C(=O)c1ccccc1C2=O` it was 43.4 µM; in that of `CC[C@H](C)NC(=O)c1ccc(Cn2c(=S)[nH]c3c([nH]c4ccc(OC)cc43)c2=O)cc1`, 6.17 µM; in that of `O=c1[nH]c(C(Cl)Cl)nc2sc3c(c12)CCN(Cc1ccccc1)C3`, over 54 µM.
With `CCOC(=O)c1c(C)oc2c1c(C(c1ccncc1)N1CCOCC1)c(O)c1ccccc12` (centres undefined), the IC50 is under 0.4 µM.
Take `COc1ccccc1/C=C1/SC(=O)N(CCC(=O)Nc2ccc(S(=O)(=O)Nc3nccs3)cc2)C1=O`: the IC50 is 2.85 µM.
For the compound `COc1ccc(-c2cnnc(N/N=C/c3ccc(O)cc3)n2)cc1`, the IC50 worked out at 8.41 µM.
In the case of `Cc1ccc(C(=O)OCC(=O)Nc2ccc(N(C)C)cc2)cc1NC(=O)c1ccco1` it was over 54 µM.
`CSc1nc(SCCO)c2sc3nc(-c4ccco4)c4c(c3c2n1)CC(C)(C)OC4` registered an IC50 of under 0.4 µM.
Turning to `O=C(CCN1C(=O)S/C(=C\c2ccccc2)C1=O)Nc1ccc(S(=O)(=O)Nc2nccs2)cc1`, the 50% inhibitory concentration (IC50) was 7.65 µM.
Compound `O=C(Nc1ccc2nc(-c3ccco3)c(-c3ccco3)nc2c1)NC1CC1` returned an IC50 of 1.33 µM.
As for `COc1ccc(N2CCC(CNC(=O)Nc3ccc(OC)cc3OC)C2)cc1` (centres undefined), the IC50 worked out at 1.24 µM.
The compound `CS(=O)(=O)c1ccc(C(=O)NCCN2C(=O)S/C(=C\c3cccnc3)C2=O)cc1[N+](=O)[O-]` yielded a half-maximal inhibitory concentration (IC50) of 3.15 µM.
Compound `COc1cccc2c(C)c(C(=O)O)[nH]c12` returned an IC50 of 2 µM.
Compound `CC(=O)Nc1ccc(C2=NNC(=Nc3ccc(S(=O)(=O)N4CCOCC4)cc3)SC2)cc1` displayed a 50% inhibitory concentration (IC50) of under 0.4 µM.
With `O=C(COC(=O)c1c2c(nc3ccccc13)/C(=C/c1ccco1)CC2)NC1CCCC1`, the IC50 is 2.35 µM.
As to `Cc1cc(C)c2oc(C(=O)Nc3ccc(S(=O)(=O)Nc4nccs4)cc3)cc(=O)c2c1`, the IC50 worked out at 4.58 µM.
For `CCc1n[nH]c(=S)n1/N=C/c1cc(OC)cc([N+](=O)[O-])c1O`, the concentration for half-maximal inhibition (IC50) is under 0.4 µM.
In turn, `O=C(O)c1ccccc1/C=N/NC(=O)c1cc(-c2ccco2)nc2ccccc12` had an IC50 of under 0.4 µM.
In the case of `COc1ccc(Cc2nnc(NC(=O)Cc3cccs3)s2)cc1` it was under 0.4 µM; in that of `O=C(O)COc1ccc(/C=N/NC(=O)c2ccc(-c3csc(Nc4ccc(Cl)cc4)n3)cc2)cc1`, 0.784 µM.
For `O=C(/C=C/c1cccs1)N1CCN(c2ccc(O)cc2)CC1`, the IC50 is 3.64 µM.
In turn, `N[C@@H](Cc1cc(I)c(Oc2ccc(O)c(I)c2)c(I)c1)C(=O)O` returned an IC50 of under 0.4 µM.
For the compound `CCNc1nc(NCC)nc(C(=O)NN)n1`, the IC50 was under 0.4 µM.
Take `O=C(O)CCCN1C(=O)/C(=C/c2cn(-c3ccccc3)nc2-c2cccs2)SC1=S`: the IC50 amounted to 1.54 µM.
Compound `COc1ccc(C(=O)N2c3ccccc3CC2C)cc1OC` (centres undefined) came in with a half-inhibitory concentration (IC50) of over 54 µM.
On to `O=C(O)c1cc(N/N=C/c2ccc(N3CCOCC3)s2)ccc1Cl`, for which the IC50 was 1.08 µM.
As to `CCOc1cc(/C=C2\C(=O)N(c3nc(-c4ccc(Br)cc4)cs3)N=C2c2ccccc2)ccc1O`, the IC50 stood at 1.65 µM.
Then `C=CCc1cccc2cc(C(=O)Nc3ccc(S(=O)(=O)Nc4nnc(CC)s4)cc3)c(=O)oc12`, with 1.54 µM; and `c1cncc(C2Nc3cccc4cccc(c34)N2)c1`, with 7.27 µM.
In turn, `O=C(/C=C1\NC2(CCCC2)Cc2ccccc21)C(=O)N/N=C/c1ccc(O)c(O)c1` came in with an IC50 of 3.47 µM.
